Measurements: the NIST ThermoML archive (doi:10.1021/je301279x)

Legend:
[1] = Drop volume
[2] = xn = mol fraction of the nth substance listed; conditions: for surface tension liquid-gas: Drop volume; for mass density: 800 kPa, Liquid, Vibrating tube method

NCCO [2-aminoethan-1-ol]
[1]
Conditions | surface tension liquid-gas [mN/m]
293.15 K | 48.48
303.15 K | 47.64
313.15 K | 46.88

NCCO [2-aminoethan-1-ol] + O
[2]
Conditions | mass density, 303.15 K [kg/m3] | mass density, 313.15 K [kg/m3] | mass density, 323.15 K [kg/m3] | mass density, 333.15 K [kg/m3] | surface tension liquid-gas, 303.15 K [mN/m] | surface tension liquid-gas, 313.15 K [mN/m] | surface tension liquid-gas, 323.15 K [mN/m] | surface tension liquid-gas, 333.15 K [mN/m]
x1 = 0.0687 | 1003.6 | 999.4 | 994.6 | 989.1 | 66.7 | 65.2 | 63.6 | 61.6
x1 = 0.1122 | 1008.2 | 1003.3 | 998.1 | 992.3 | 63.7 | 62.4 | 61 | 59.5
x1 = 0.1643 | 1013.3 | 1007.8 | 1002.1 | 995.7 | 61.5 | 59.8 | 58.4 | 57
x1 = 0.2277 | 1017.8 | 1011.8 | 1005.4 | 998.7 | 59.6 | 58.1 | 56.5 | 55.1
x1 = 0.3067 | 1021.3 | 1014.6 | 1007.8 | 1000.6 | 57.4 | 56.1 | 55 | 53.6
x1 = 0.4076 | 1022.6 | 1015.5 | 1008.2 | 1000.6 | 54.5 | 53.6 | 52.5 | 51.2

O [water]
[1]
Conditions | surface tension liquid-gas [mN/m]
293.15 K | 72.56
303.15 K | 70.9
313.15 K | 69.81
323.15 K | 67.72
